Values joined by “and” are separate entries in the source; they are usually repeats but may differ in a detail not shown here. Equal values may be shown once. Results filed as inconclusive are left out. Where a SMILES comes first, the peptide text is derived from it. [ ]: non-standard residue; d: D form. The star is where a group is joined. ξ: configuration not given here. ξAsp(βξ-Me) = CC(C(=O)O)C(N)C(=O)O; X4 = CC(N*)C1NC(=O)C2CCCCN2C1=O; ξAbu(3ξ-NH2) = CC(N)C(N)C(=O)O; X3 = CCC(C)CCC/C=C/CC(=O)*
System: BDF1 mice, s.c. Lewis lung carcinoma, T/C %
Assay: NCI In Vivo Anticancer Drug Screen. Data for tumor model Lewis Lung Carcinoma (subcutaneous) in B6D2F1 (BDF1) mice
In short: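 Readout: survival or tumor size, expressed as treated (T) over vehicle control (C). Transplantable tumor implanted in mice; compound given to the treated group.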

[1] = endpoint: median survival time, dose: 25.0 mg/kg/injection, schedule: Q01DX009 (ip), vehicle: other, higher = longer survival
[2] = endpoint: median survival time, dose: 50.0 mg/kg/injection, schedule: Q01DX009 (ip), vehicle: other, higher = longer survival
[3] = endpoint: median survival time, dose: 100.0 mg/kg/injection, schedule: Q01DX009 (ip), vehicle: other, higher = longer survival
[4] = endpoint: median survival time, dose: 200.0 mg/kg/injection, schedule: Q01DX009 (ip), vehicle: other, higher = longer survival
[5] = endpoint: median survival time, dose: 12.5 mg/kg/injection, schedule: Q01DX009 (ip), vehicle: other, higher = longer survival

## C=C[C@]1(C)C=C2CC[C@@H]3[C@](C)(CCC[C@@]3(C)C(=O)O)[C@H]2CC1
endpoint: mean tumor weight, dose: 7.8 mg/kg/injection, schedule: Q01DX011 (ip), vehicle: saline, higher = larger tumour
  T/C: 73 % of control
endpoint: mean tumor weight, dose: 15.6 mg/kg/injection, schedule: Q01DX011 (ip), vehicle: saline, higher = larger tumour
  T/C: 55 % of control
endpoint: mean tumor weight, dose: 31.3 mg/kg/injection, schedule: Q01DX011 (ip), vehicle: saline, higher = larger tumour
  T/C: 43 % of control
endpoint: mean tumor weight, dose: 62.5 mg/kg/injection, schedule: Q01DX011 (ip), vehicle: saline, higher = larger tumour
  T/C: 98 % of control and 102 % of control
endpoint: mean tumor weight, dose: 125.0 mg/kg/injection, schedule: Q01DX011 (ip), vehicle: saline, higher = larger tumour
  T/C: 102 % of control
endpoint: mean tumor weight, dose: 250.0 mg/kg/injection, schedule: Q01DX011 (ip), vehicle: saline, higher = larger tumour
  T/C: 82 % of control

## CC(=O)c1c(O)c(C)c(O)c(Cc2c(O)c3c(c(C(=O)/C=C/c4ccccc4)c2O)OC(C)(C)C=C3)c1O
endpoint: mean tumor weight, dose: 15.0 mg/kg/injection, schedule: Q01DX011 (ip), vehicle: saline, higher = larger tumour
  T/C: 96 % of control
endpoint: mean tumor weight, dose: 22.0 mg/kg/injection, schedule: Q01DX011 (ip), vehicle: saline, higher = larger tumour
  T/C: 82 % of control
endpoint: mean tumor weight, dose: 35.0 mg/kg/injection, schedule: Q01DX011 (ip), vehicle: saline, higher = larger tumour
  T/C: 79 % of control

## CCC1CCC(NC(=O)N(CCF)N=O)CC1 (centres undefined)
endpoint: median tumor weight (est.), dose: 50.0 mg/kg/injection, schedule: Q01DX001 (ip), vehicle: saline with Tween-80, higher = larger tumour
  T/C: 62 % of control

## COc1ccc(CN(CCOC(=O)c2ccc(OC)cc2)CCN(CCOC(=O)c2ccc(OC)cc2)Cc2ccc(OC)cc2)cc1
[1]
  T/C: 100 % of control
[2]
  T/C: 98 % of control
[3]
  T/C: 93 % of control
[4]
  T/C: 100 % of control

## C=C1C(=O)O[C@H]2C1[C@H](OC(=O)/C(C)=C\COC(C)=O)C[C@]1(CO1)[C@@H]1[C@H](O)[C@H]3O[C@@]3(C)[C@@H]12 (some centres undefined)
endpoint: median survival time, dose: 3.12 mg/kg/injection, schedule: Q01DX009 (ip), vehicle: other, higher = longer survival
  T/C: 86 % of control
endpoint: median survival time, dose: 6.25 mg/kg/injection, schedule: Q01DX009 (ip), vehicle: other, higher = longer survival
  T/C: 89 % of control
[5]
  T/C: 97 % of control
[1]
  T/C: 99 % of control

## O=NN(CCCl)C(=O)NC(CCC(=O)O)C(=O)O (centres undefined)
endpoint: median survival time, dose: 81.0 mg/kg/injection, schedule: Q01DX001 (ip), vehicle: saline with Tween-80, higher = longer survival
  T/C: 99 % of control
endpoint: median survival time, dose: 122.0 mg/kg/injection, schedule: Q01DX001 (ip), vehicle: saline with Tween-80, higher = longer survival
  T/C: 95 % of control
endpoint: median survival time, dose: 183.0 mg/kg/injection, schedule: Q01DX001 (ip), vehicle: saline with Tween-80, higher = longer survival
  T/C: 157 % of control
endpoint: median survival time, dose: 184.0 mg/kg/injection, schedule: Q01DX001 (ip), vehicle: saline with Tween-80, higher = longer survival
  T/C: 117 % of control
endpoint: median survival time, dose: 275.0 mg/kg/injection, schedule: Q01DX001 (ip), vehicle: saline with Tween-80, higher = longer survival
  T/C: 107 % of control

## CC1CN=C(C(=O)C(C)C2CCC3C4CC=C5CC(O)CCC5(C)C4CCC23C)C1 (centres undefined)
endpoint: mean tumor weight, dose: 100.0 mg/kg/injection, schedule: Q01DX011 (sc), vehicle: steriod suspending solution, higher = larger tumour
  T/C: 118 % of control

## [N-]=[N+]=CC(=O)NCC(=O)NN
endpoint: mean tumor weight, dose: 125.0 mg/kg/injection, schedule: Q01DX011 (ip), vehicle: water, higher = larger tumour
  T/C: 95 % of control
endpoint: mean tumor weight, dose: 250.0 mg/kg/injection, schedule: Q01DX011 (ip), vehicle: water, higher = larger tumour
  T/C: 66 % of control
endpoint: mean tumor weight, dose: 500.0 mg/kg/injection, schedule: Q01DX011 (ip), vehicle: water, higher = larger tumour
  T/C: 40 % of control

## CCC(C)CCC/C=C/CC(=O)NC(CC(=O)O)C(=O)NC(C(=O)NC(CC(=O)O)C(=O)NCC(=O)NC(CC(=O)O)C(=O)NCC(=O)NC(C(=O)NC(C(=O)N1CCCC1C(=O)NC(C)C1NC(=O)C2CCCCN2C1=O)C(C)C)C(C)N)C(C)C(=O)O (stereo not drawn) (X3-D[ξAsp(βξ-Me)]DGDG[ξAbu(3ξ-NH2)]VP-X4; configuration not given here)
endpoint: median survival time, dose: 100.0 mg/kg/injection, schedule: Q01DX009 (ip), vehicle: saline + alcohol, higher = longer survival
  T/C: 124 % of control
endpoint: median survival time, dose: 200.0 mg/kg/injection, schedule: Q01DX009 (ip), vehicle: saline + alcohol, higher = longer survival
  T/C: 99 % of control

## COc1ccc(-c2c(CC(=O)O)c3cc(OC)ccc3n2Cc2ccc(Cl)cc2)cc1
endpoint: mean tumor weight, dose: 222.0 mg/kg/injection, schedule: Q01DX011 (ip), vehicle: other, higher = larger tumour
  T/C: 164 % of control
endpoint: mean tumor weight, dose: 333.0 mg/kg/injection, schedule: Q01DX011 (ip), vehicle: other, higher = larger tumour
  T/C: 151 % of control

## N=C(N)Sc1cc(O)ccc1O
[5]
  T/C: 102 % of control
endpoint: median survival time, dose: 18.75 mg/kg/injection, schedule: Q01DX009 (ip), vehicle: saline, higher = longer survival
  T/C: 120 % of control
[1]
  T/C: 103 % of control
endpoint: median survival time, dose: 37.5 mg/kg/injection, schedule: Q01DX009 (ip), vehicle: saline, higher = longer survival
  T/C: 92 % of control
[2]
  T/C: 93 % of control
[3]
  T/C: 100 % of control
[4]
  T/C: 93 % of control
endpoint: median survival time, dose: 300.0 mg/kg/injection, schedule: Q01DX009 (ip), vehicle: saline, higher = longer survival
  T/C: 91 % of control

Source: PubChem BioAssay AID270 (DTP/NCI, 2004)
